# Laboratory results reported in article PMC9411599.
# Like-named read-outs stand apart in the source and are kept apart here.
# What was measured:
# [1] = photoredox thiol-yne dihydrothiolation of acetylene by dithiol ([1+1] macrocyclisation, forms S-CH2CH2-S bridge); [Ir(d(tBu)(CF3)ppy)2(dtbbpy)]Cl 1 mol%, DIPEA 1.5 equiv, acetylene balloon, blue LEDs 455 nm; conditions: the molecule shown is the open-chain precursor, DMF/H2O 50:1, 50.0 mM, 25.0 °C
# [2] = the molecule shown is the open-chain precursor
structure (smiles),measurement,setting,value
CC(C)(COC(=O)CCS)COC(=O)CCS [9],"ring closure, isolated yield","[1]; 15-membered ring, 12.0 h",32%
O=C(CCS)OCc1ccccc1COC(=O)CCS [34],"ring closure, isolated yield","[1]; 16-membered ring, 12.0 h",39%
CC(COC(=O)CCS)COC(=O)CCS [7],"ring closure, isolated yield","[1]; 15-membered ring, 12.0 h",27%
"O=C(CCS)OCCCCCCOc1cccc2c1C1(CC2)CCc2cccc(OCCCCCCOC(=O)CCS)c21 (single isomer, unassigned) [51 ((R)-spirobiindane, stereo not in SMILES)]","ring closure, isolated yield","[1]; 31-membered ring, 12.0 h",21%
"SCCCCCCOc1ccc2ccccc2c1-c1c(OCCCCCCS)ccc2ccccc12 [44 ((R)-BINOL, axial stereo not in SMILES)]","ring closure, isolated yield","[1]; 22-membered ring, 12.0 h",35%
O=C(CCS)OCCCCCCCOC(=O)CCS [14 (=3)],"ring closure, isolated yield","[1]; 19-membered ring, 12.0 h",26%
SCCCS [54 substrate (only [2+2])],"ring closure, isolated yield","[1]; 7-membered ring, 12.0 h",0%
O=C(CCS)OCc1ccc(COC(=O)CCS)cc1 [37],"ring closure, isolated yield","[1]; 18-membered ring, 12.0 h",8%
O=C(CCS)OCCCCCCOC(=O)CCS [12],"ring closure, isolated yield","[1]; 18-membered ring, 12.0 h",23%
SCCCCCCCCS [58 substrate (only [2+2])],"ring closure, isolated yield","[1]; 12-membered ring, 12.0 h",0%
O=C(CCS)OCCCCCOC(=O)CCS [11],"ring closure, isolated yield","[1]; 17-membered ring, 12.0 h",38%
"O=C(CCS)OCCCCCOc1ccc2ccccc2c1-c1c(OCCCCCOC(=O)CCS)ccc2ccccc12 [47 ((R)-BINOL, axial stereo not in SMILES)]","ring closure, isolated yield","[1]; 28-membered ring, 12.0 h",29%
O=C(CCS)OCCOCCOCCOCCOC(=O)CCS [25],"ring closure, isolated yield","[1]; 23-membered ring, 12.0 h",27%
SCCCCS [55 substrate (only [2+2])],"ring closure, isolated yield","[1]; 8-membered ring, 12.0 h",0%
O=C(OCCOc1ccc(OCCOC(=O)c2ccccc2S)cc1)c1ccccc1S,"ring closure, isolated yield",[1]; 22-membered ring,0%
O=C(OCCCCCCS)C(F)(F)C(F)(F)C(=O)OCCCCCCS [20],"ring closure, isolated yield","[1]; 22-membered ring, 12.0 h",33%
SCCS [52 substrate (only [2+2])],"ring closure, isolated yield","[1]; 6-membered ring, 12.0 h",0%
O=C(COc1ccccc1OCC(=O)OCCCCCCS)OCCCCCCS [35],"ring closure, isolated yield","[1]; 26-membered ring, 12.0 h",24%
O=C(CCS)OCCN(CCOC(=O)CCS)c1ccccc1 [27],"ring closure, isolated yield","[1]; 17-membered ring, 12.0 h",38%
O=C(CCS)OCCCCCCCCCOC(=O)CCS [16],"ring closure, isolated yield","[1]; 21-membered ring, 12.0 h",24%
O=C(OCCCCCCS)c1ccccc1S [33],"ring closure, isolated yield","[1]; 14-membered ring, 12.0 h",25%
O=C(CCS)OCCOC(=O)CCS [5],"ring closure, isolated yield","[1]; 14-membered ring, 12.0 h",42%
"O=C(CCS)OCCCOc1ccc2ccccc2c1-c1c(OCCCOC(=O)CCS)ccc2ccccc12 [45 ((R)-BINOL, axial stereo not in SMILES)]","ring closure, isolated yield","[1]; 24-membered ring, 12.0 h",30%
O=C(CCS)OCCCOc1ccc2ccc(OCCCOC(=O)CCS)cc2c1 [39],"ring closure, isolated yield","[1]; 25-membered ring, 12.0 h",31%
O=C(CCS)OCCCOC(=O)CCS [6],"ring closure, isolated yield","[1]; 15-membered ring, 12.0 h",30%
O=C(OCCCCCCS)[C@H]1CC[C@H](C(=O)OCCCCCCS)CC1 [29 (trans)],"ring closure, isolated yield","[1]; 24-membered ring, 12.0 h",26%
"O=C(CCS)OCCCCCCOc1ccc2ccccc2c1-c1c(OCCCCCCOC(=O)CCS)ccc2ccccc12 [48 ((R)-BINOL, axial stereo not in SMILES)]","ring closure, isolated yield","[1]; 30-membered ring, 12.0 h",26%
O=C(CCS)OCc1ccc(COC(=O)CCS)o1 [41],"ring closure, isolated yield","[1]; 17-membered ring, 12.0 h",15%
O=C(CCS)OCCCCCCCCCCCCOC(=O)CCS [18],"ring closure, isolated yield","[1]; 24-membered ring, 12.0 h",25%
SCCCCCCCCCCS [60 substrate (only [2+2])],"ring closure, isolated yield","[1]; 14-membered ring, 12.0 h",0%
"O=C(CCS)O[C@H]1CCCC[C@@H]1OC(=O)CCS [49 (1S,2S per text; SI product procedure names 1R,2R)]","ring closure, isolated yield","[1]; 14-membered ring, 12.0 h",38%
SCCCCCCCCCS [59 substrate (only [2+2])],"ring closure, isolated yield","[1]; 13-membered ring, 12.0 h",0%
"SCCCCCCCCOc1ccc2ccccc2c1-c1c(OCCCCCCCCS)ccc2ccccc12 [46 ((R)-BINOL, axial stereo not in SMILES)]","ring closure, isolated yield","[1]; 26-membered ring, 12.0 h",28%
CN(CC(=O)OCCCCCCS)CC(=O)OCCCCCCS [28],"ring closure, isolated yield","[1]; 23-membered ring, 12.0 h",24%
O=C(CCCCCCC(=O)OCCS)OCCS [13],"ring closure, isolated yield","[1]; 18-membered ring, 12.0 h",28%
O=C(CCS)OCc1cccc(COC(=O)CCS)n1 [40],"ring closure, isolated yield","[1]; 17-membered ring, 12.0 h",32%
SCCOCCOCCS [62 (dimer 61)],"ring closure, isolated yield","[1]; 12-membered ring, 12.0 h",42%
SCCSCCCSCCS [66 (dimer 65)],"ring closure, isolated yield","[1]; 13-membered ring, 12.0 h",17%
O=C(CCS)OCCCCOC(=O)CCS [10],"ring closure, isolated yield","[1]; 16-membered ring, 12.0 h",36%
O=C(OCCCCCCS)C(F)(F)C(F)(F)C(F)(F)C(F)(F)C(=O)OCCCCCCS [21],"ring closure, isolated yield","[1]; 24-membered ring, 12.0 h",31%
O=C(CCS)OCCCCCCCCCCOC(=O)CCS [17],"ring closure, isolated yield","[1]; 22-membered ring, 12.0 h",20%
CC(CC(C)OC(=O)CCS)OC(=O)CCS (racemic) [8 (+/-)],"ring closure, isolated yield","[1]; 15-membered ring, 12.0 h",33%
O=C(CCS)OCCOCCOCCOC(=O)CCS [24],"ring closure, isolated yield","[1]; 20-membered ring, 12.0 h",28%
O=C(CCS)OCCCCCCCCCCCCCCOC(=O)CCS [19],"ring closure, isolated yield","[1]; 26-membered ring, 12.0 h",21%
O=C(OCCCCCCS)[c-]1cccc1.O=C(OCCCCCCS)[c-]1cccc1.[Fe+2] [42 (ferrocene)],"ring closure, isolated yield",[2],8%
OC(CS)C(O)CS (stereo not shown) [53 substrate (only [2+2])],"ring closure, isolated yield","[1]; 8-membered ring, 12.0 h",0%
O=C(CCS)OCCCCCCCCOC(=O)CCS [15],"ring closure, isolated yield","[1]; 20-membered ring, 12.0 h",22%
O=C(CCS)OCCOCCOC(=O)CCS [23],"ring closure, isolated yield","[1]; 17-membered ring, 12.0 h",29%
O=C(COCC(=O)OCCCCCCS)OCCCCCCS [22],"ring closure, isolated yield","[1]; 23-membered ring, 12.0 h",23%
C[C@H](S)C(=O)NCC(=O)OCCCCCCS [50 (S per text; SI also names R)],"ring closure, isolated yield","[1]; 16-membered ring, 12.0 h",19%
O=C(CCS)OCCOc1ccc(OCCOC(=O)CCS)cc1 [38],"ring closure, isolated yield","[1]; 22-membered ring, 12.0 h",22%
"SCCCOc1ccc2ccccc2c1-c1c(OCCCS)ccc2ccccc12 [43 ((R)-BINOL, axial stereo not in SMILES)]","ring closure, isolated yield","[1]; 16-membered ring, 12.0 h",40%
O=C(OCCCCCCS)C12CC3CC(C1)CC(C(=O)OCCCCCCS)(C3)C2 [31],"ring closure, isolated yield","[1]; 23-membered ring, 12.0 h",32%
SCCOCCS [64 (dimer 63)],"ring closure, isolated yield","[1]; 9-membered ring, 12.0 h",23%
O=C(CCS)OCCOCCOCCOCCOCCOCCOCCOCCOC(=O)CCS [26],"ring closure, isolated yield","[1]; 35-membered ring, 12.0 h",18%
SCCCCCS [56 substrate (only [2+2])],"ring closure, isolated yield","[1]; 9-membered ring, 12.0 h",0%
O=C(CCS)OCCN1CCN(CCOC(=O)CCS)CC1 [32],"ring closure, isolated yield","[1]; 20-membered ring, 12.0 h",21%
O=C(OCCCCCCS)C12CCC(C(=O)OCCCCCCS)(CC1)CC2 [30],"ring closure, isolated yield","[1]; 24-membered ring, 12.0 h",28%
SCCCCCCS [57 substrate (only [2+2])],"ring closure, isolated yield","[1]; 10-membered ring, 12.0 h",0%
O=C(CS)OCCCCOC(=O)CS [4],"ring closure, isolated yield","[1]; 14-membered ring, 12.0 h",32%
O=C(CCS)OCc1cccc(COC(=O)CCS)c1 [36],"ring closure, isolated yield","[1]; 17-membered ring, 12.0 h",37%
